The subject of this assay is C57BL/KsJ-db/db mice. Put plainly: blood sugar and triglycerides lowering in db/db mice, oral gavage daily for 6 days. The conditions noted are these: for inhibition in vivo at 30 mg/kg/day / inhibition in vivo at 100 mg/kg/day / inhibition in vivo at 10 mg/kg/day: Mus musculus, 144 h, 6 days treated; for inhibition in vivo at 30 mg/kg/day: dose 30 mg/kg/day oral gavage; for inhibition in vivo at 100 mg/kg/day: dose 100 mg/kg/day oral gavage; for inhibition in vivo at 10 mg/kg/day: dose 10 mg/kg/day oral gavage. The format is in vivo. The text has this:
Mutation in colonies of laboratory animals and different sensitivities to dietary regimens have made the development of animal models with non-insulin dependent diabetes associated with obesity and insulin resistance possible. Genetic models such as db/db and ob/ob (See Diabetes, (1982) 31(1): 1-6) in mice and fa/fa and zucker rats have been developed by the various laboratories for understanding the pathophysiology of disease and testing the efficacy of new antidiabetic compounds (Diabetes, (1983) 32: 830-838; Annu. Rep. Sankyo Res. Lab. (1994) 46: 1-57). The homozygous animals, C57 BL/KsJ-db/db mice developed by Jackson Laboratory, US, are obese, hyperglycemic, hyperinsulinemic and insulin resistant (J. Clin. Invest., (1990) 85: 962-967), whereas heterozygous are lean and normoglycemic. In db/db model, mouse progressively develops insulinopenia with age, a feature commonly observed in late stages of human type II diabetes when blood sugar levels are insufficiently controlled. The state of pancreas and its course vary according to the models. Since this model resembles that of type II diabetes mellitus, the compounds of the present invention were tested for blood sugar and triglycerides lowering activities.
Male C57BL/KsJ-db/db mice of 8 to 14 weeks age, having body weight range of 35 to 60 grams, procured from the Jackson Laboraotory, USA, were used in the experiment. The mice were provided with standard feed (National Institute of Nutrition, Hyderabad, India) and acidified water, ad libitum. The animals having more than 300 mg/dl blood sugar were used for testing. The number of animals in each group was 4.
The random blood sugar and triglyceride levels were measured by collecting blood (100 μl) through orbital sinus, using heparinised capillary in tubes containing EDTA which was centrifuged to obtain plasma. The plasma glucose and triglycerides levels were measured spectrometrically, by glucose oxidase and glycerol-3-PO4 oxidase/peroxidase enzyme (Dr. Reddy's Lab. Diagnostic Division Kits, Hyderabad, India) methods respectively. On 6th day the blood samples were collected one hour after administration of test compounds/vehicle for assessing the biological activity.
Test compounds were suspended on 0.25% carboxymethyl cellulose and administered to test group at a dose of 10 mg to 100 mg/kg through oral gavage daily for 6 days. The control group received vehicle (dose 10 ml/kg).
The blood sugar and triglycerides lowering activities of the test compound was calculated according to the formula: [formula]

The mark [1] stands for this setting: read-out: Maximum reduction in blood glucose level (%).
[2] abbreviates: read-out: Triglyceride lowering (%).

Structures can show the parent of a compound that is named as a salt. Where two headings read alike, the source gives them in different places.

Take `CCCc1nc(C)cc(=O)n1CCOc1ccc(CC2SC(=O)NC2=O)cc1` (stereo not drawn) [Example 17, 5-[4-[2-[4-methyl-2-Propyl-6-oxo-1,6-dihydro-1-pyrimidinyl]ethoxy]phenylmethyl]thiazolidine-2,4-dione]: the inhibition in vivo at 30 mg/kg/day reads like this: under setting [1], 65%; under setting [2], 45%.

`Cn1c(COc2ccc(CC3SC(=O)NC3=O)cc2)nc2ccccc2c1=O` (stereo not drawn) [Example 22, 5-[4-[[3-Methyl-4-oxo-3,4-dihydro-2-quinazolinyl]methoxy]phenylmethyl]thiazolidine-2,4-dione]: the inhibition in vivo at 30 mg/kg/day was 55% under setting [1] and 41% under setting [2].

As for `CCc1nc(-c2ccccc2)cc(=O)n1CCOc1ccc(/C=C2\SC(=O)NC2=O)cc1` [Example 7, 5-[4-[2-[2-Ethyl-4phenyl-6-oxo-1,6-dihydro-1-pyrimidinyl]ethoxy]phenylmethylene]thiazolidine-2,4-dione], the inhibition in vivo at 100 mg/kg/day by setting is: under setting [1], 66%; under setting [2], 35%.

On to `CCn1c(COc2ccc(/C=C3\SC(=O)NC3=O)cc2)nc2ccccc2c1=O` [Example 13, 5-[4-[[3-Ethyl-4-oxo-3,4-dihydro-2-quinazolinyl]methoxy]phenylmethylene]thiazolidine-2,4-dione], for which the inhibition in vivo at 100 mg/kg/day was determined as 52% under setting [1] and 57% under setting [2].

Regarding `Cc1c(C)c2c(c(C)c1O)CCC(C)(COc1ccc(CC3SC(=O)NC3=O)cc1)O2` (stereo not drawn) [Troglitazone, reference compound], the “reduction in random blood sugar level” value (100 mg/kg daily dose, on 6th day) came out at 28%.

On to `CCc1nc2ccccc2c(=O)n1CCOc1ccc(CC2SC(=O)NC2=O)cc1` (stereo not drawn) [Example 24, 5-[4-[2-[2-Ethyl-4-oxo-3,4-dihydro-3-quinazolinyl]ethoxy]phenylmethyl]thiazolidine-2,4-dione], for which the inhibition in vivo at 10 mg/kg/day is, setting by setting: under setting [1], 63%; under setting [2], 17%.

On to `CCc1nc(-c2ccccc2)cc(=O)n1CCOc1ccc(CC2SC(=O)NC2=O)cc1` (stereo not drawn) [Example 21, 5-[4-[2-[2-Ethyl-4phenyl-6-oxo-1,6-dihydro-1-pyrimidinyl]ethoxy]phenylmethyl]thiazolidine-2,4-dione], for which the inhibition in vivo at 30 mg/kg/day reads like this: under setting [1], 64%; under setting [2], 76%.

Turning to `Cn1c(COc2ccc(/C=C3\SC(=O)NC3=O)cc2)nc2ccccc2c1=O` [Example 12, 5-[4-[[3-Methyl-4-oxo-3,4-dihydro-2-quinazolinyl]methoxy]phenylmethylene]thiazolidine-2,4-dione], the inhibition in vivo at 100 mg/kg/day runs as follows: under setting [1], 71%; under setting [2], 57%.

For the compound `Cn1c(COc2ccc(CC3SC(=O)NC3=O)cc2)nc2ccccc2c1=O` (stereo not drawn) [Example 28, 5-[4-[[3-Methyl-4oxo-3,4-dihydro-2-quinazolinyl]methoxy]phenylmethyl]thiazolidine-2,4-dione sodium salt], the inhibition in vivo at 10 mg/kg/day is 63% under setting [1] and 57% under setting [2].

As to `CCc1nc(C)cc(=O)n1CCOc1ccc(CC2SC(=O)NC2=O)cc1` (stereo not drawn) [Example 19, 5-[4-[2-[2-Ethyl-4-methyl-6-oxo-1,6-dihydro-1-pyrimidinyl]ethoxy]phenylmethyl]thiazolidine-2,4-dione], the inhibition in vivo at 30 mg/kg/day reads like this: under setting [1], 73%; under setting [2], 70%.

Consider `Cc1nc2ccccc2c(=O)n1CCOc1ccc(/C=C2\SC(=O)NC2=O)cc1` [Example 9, 5-[4-[2-[2-Methyl-4-oxo-3,4-dihydro-3-quinazolinyl]ethoxy]phenylmethylene]thiazolidine-2,4-dione], for which the inhibition in vivo at 30 mg/kg/day runs as follows: under setting [1], 46%; under setting [2], 35%.

In the case of `CCc1c(C)nc(CC)n(CCOc2ccc(/C=C3\SC(=O)NC3=O)cc2)c1=O` [Example 6, 5-[4-[2-[2,Diethyl-4-methyl-6-oxo-1,6-dihydro-1-pyrimidinyl]ethoxy]phenylmethylene]thiazolidine-2,4-dione], the inhibition in vivo at 100 mg/kg/day runs as follows: under setting [1], 41%; under setting [2], 31%.

Regarding `CCc1nc(C)cc(=O)n1CCOc1ccc(/C=C2\SC(=O)NC2=O)cc1` [Example 3, 5-[4-[2-[2-Ethyl-4-methyl-6-oxo-1,6-dihydro-1-pyrimidinyl]ethoxy]phenylmethylene]thiazolidine-2,4-dione], the inhibition in vivo at 100 mg/kg/day reads like this: under setting [1], 67%; under setting [2], 12%.

Consider `Cc1nc2ncccc2c(=O)n1CCOc1ccc(/C=C2\SC(=O)NC2=O)cc1` [Example 11, 5-[4-[2-[8-Aza-2-methyl-4-oxo-3,4-dihydro-3-quinazolinyl]ethoxy]phenylmethylene]thiazolidine-2,4-dione], for which the inhibition in vivo at 30 mg/kg/day reads like this: under setting [1], 32%; under setting [2], 42%.
